How the values were obtained:
[1] = molecular target: T1, Rheb (Homo sapiens, UniProt Q15382); assay: Rheb GTP Binding Domain Inhibition Assay; settings: read-out: Rheb: % inh.
T1 construct: made in house
Protocol: (§1) Protocol for Cdc42 and Rheb GTP Binding Domain Inhibition Assay
(§2) The following method was developed as specific assay for cdc42 and Rheb proteins.
(§3) • 25 mM Tris-HCl, pH 7.4 • 27 mM KCl • 137 mM NaCl • 1 mM MgCl2 • 1 mM DTT Buffer-II: • 50 mM Tris-HCl, pH 7.0 • 1 mM MgCl2 • 1 mM DTT
(§4) The small GTPases proteins cdc42 and Rheb were expressed as His-tagged proteins. For the assay, the cdc42 and Rheb purified small GTPases proteins were diluted in Buffer-I or Buffer-II to a final concentration of 10-30 μg/mL. 200 μL of each diluted protein was added to a nickel-coated 96-well plate and incubated overnight at […]. Then the protein solution was discarded and 200 μL of Buffer-I or Buffer-II was added to each well in the presence of 1% DMSO. Compounds to be tested were added to the protein-coated wells at final concentration of 20 μM, and incubated for 3 hours at room temperature with and without 10-30 μg/mL of Sos added to the final hour of the incubation. When performing IC50 measurements a serial dilution of all tested concentrations was added. Then Cy3-GTP or Cy5-GTP was added to each well to a final concentration of 100 nM. The labeled GTP was incubated for 45 minutes at room temperature. Following GTP incubation, wells were washed 3× in Buffer-I or Buffer-II and 200 μL of Buffer-I or Buffer-II was added to each well. Following washes, the amount of bound labeled-GTP was measured using a SpectraMax M3 (Molecular Devices).

[2] = molecular target: T2, cdc42 (Homo sapiens, UniProt P60953); assay: Cdc42 GTP Binding Domain Inhibition Assay; settings: read-out: Cdc42: % inh.
T2 construct: made in house
T2 sequence (P60953 whole entry, the tested form may be a part): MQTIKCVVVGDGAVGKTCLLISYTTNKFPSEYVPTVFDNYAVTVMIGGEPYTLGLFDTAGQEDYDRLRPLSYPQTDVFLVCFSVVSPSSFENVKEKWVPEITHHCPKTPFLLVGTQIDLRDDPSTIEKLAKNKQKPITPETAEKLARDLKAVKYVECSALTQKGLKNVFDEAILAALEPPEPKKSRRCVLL
Protocol: as §1, §2, §3, §4

[3] = tested on: KRas Q61H mutant; assay: Ras GTP Binding Domain Inhibition Assay (Ras Superfamily Assay); settings: 20 μM compound; for KRas Q61H mutant + SOS: % inh.: with SOS; for KRas Q61H mutant: % inh.: without SOS
In short: (§5)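 Ni-plate capture of His-tagged protein (10-30 μg/mL, o/n 4° C); cpd 20 μM or dilution series, 1% DMSO, 3 h RT ± Sos 556-1049 last h; 100 nM Cy-labelled GTP 45 min RT; 3× wash; fluorescence read.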

[4] = molecular target: T3, Rho-A (Homo sapiens, UniProt P61586); assay: as above; settings: read-out: Rho-A: % inh..
T3 construct: made in house
T3 sequence (P61586 whole entry): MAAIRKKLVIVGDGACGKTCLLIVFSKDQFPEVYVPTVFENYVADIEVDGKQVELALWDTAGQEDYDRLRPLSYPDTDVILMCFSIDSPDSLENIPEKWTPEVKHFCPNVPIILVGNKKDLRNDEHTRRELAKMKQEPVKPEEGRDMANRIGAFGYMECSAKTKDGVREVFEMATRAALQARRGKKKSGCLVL
In short: as §5

[5] = tested on: KRas G12C mutant; assay: as above; settings: 20 μM compound; for KRas G12C mutant + SOS: % inh.: with SOS; for KRas G12C mutant: % inh.: without SOS
In short: as §5

T1 sequence (Q15382 whole entry, the tested form may be a part): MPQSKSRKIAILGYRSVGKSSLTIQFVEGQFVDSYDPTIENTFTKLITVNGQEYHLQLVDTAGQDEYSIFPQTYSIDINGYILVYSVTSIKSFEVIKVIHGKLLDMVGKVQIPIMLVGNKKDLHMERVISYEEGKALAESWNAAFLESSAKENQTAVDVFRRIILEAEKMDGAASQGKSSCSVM

Structure (SMILES)	inhibition at 20 µM [1] [%]	inhibition at 20 µM [2] [%]	KRas Q61H mutant + SOS: % inh. [3]	KRas Q61H mutant: % inh. [3]	inhibition at 20 µM [4] [%]	KRas G12C mutant + SOS: % inh. [5]	KRas G12C mutant: % inh. [5]
Cc1c(-c2ccn(C(C)C)n2)cn2nc(-c3nccn3C)nc(Nc3nccn3C)c12 [Compound 93, 6-(1-Isopropyl-1H-pyrazol-3-yl)-5-methyl-N,2-bis(1-methyl-1H-imidazol-2-yl)pyrrolo[2,1-f][1,2,4]triazin-4-amine]	76 to 100	76 to 100	D (D = 76-100% inhibition)	C (C = 50-75% inhibition)	76 to 100	C (C = 50-75% inhibition)	D (D = 76-100% inhibition)
COc1cc(Nc2nc(-c3nccn3C)nn3cc(-c4ccccn4)c(C)c23)ncn1 [Compound 94, N-(6-Methoxypyrimidin-4-yl)-5-methyl-2-(1-methyl-1H-imidazol-2-yl)-6-(pyridin-2-yl)pyrrolo[2,1-f][1,2,4]triazin-4-amine]	26 to 49	26 to 49	C (C = 50-75% inhibition)	B (B = 26-49% inhibition)	76 to 100	B (B = 26-49% inhibition)	B (B = 26-49% inhibition)
Cc1c(-c2ccn(C(C)C)n2)cn2nc(-c3ccccn3)nc(O)c12 [Compound 8, 6-(1-Isopropyl-1H-pyrazol-3-yl)-5-methyl-2-(pyridin-2-yl)pyrrolo[2,1-f][1,2,4]triazin-4-ol]	–	–	0 (0 = 0% inhibition)	0 (0 = 0% inhibition)	0	A (A = 1-25% inhibition)	0 (0 = 0% inhibition)
COc1ccnc(Nc2nc(-c3nccn3C)nn3cc(-c4ccn(C(F)F)n4)c(C)c23)n1 [Compound 95, 6-(1-(Difluoromethyl)-1H-pyrazol-3-yl)-N-(4-methoxypyrimidin-2-yl)-5-methyl-2-(1-methyl-1H-imidazol-2-yl)pyrrolo[2,1-f][1,2,4]triazin-4-amine]	50 to 75	50 to 75	C (C = 50-75% inhibition)	C (C = 50-75% inhibition)	76 to 100	B (B = 26-49% inhibition)	B (B = 26-49% inhibition)
CO[C@H]1CC[C@@H](Nc2nc(-c3ccccn3)nn3cc(-c4ccn(C(C)C)n4)c(C)c23)C1 (racemic) [Compound 9, rac 6-(1-Isopropyl-1H-pyrazol-3-yl)-N-((1R,3S)-3-methoxycyclopentyl)-5-methyl-2-(pyridin-2-yl)pyrrolo[2,1-f][1,2,4]triazin-4-amine]	–	–	0 (0 = 0% inhibition)	A (A = 1-25% inhibition)	0	0 (0 = 0% inhibition)	B (B = 26-49% inhibition)
Cc1c(-c2ccn(C)n2)cn2nc(-c3nccn3C)nc(Cl)c12 [Compound 99, 4-Chloro-5-methyl-2-(1-methyl-1H-imidazol-2-yl)-6-(1-methyl-1H-pyrazol-3-yl)pyrrolo[2,1-f][1,2,4]triazine]	–	–	–	–	–	B (B = 26-49% inhibition)	B (B = 26-49% inhibition)
COc1cc(Nc2nc(-c3nccn3C)nn3cc(-c4ccn(C(C)C)n4)c(C)c23)ncn1 [Compound 6, 6-(1-Isopropyl-1H-pyrazol-3-yl)-N-(6-methoxypyrimidin-4-yl)-5-methyl-2-(1-methyl-1H-imidazol-2-yl)pyrrolo[2,1-f][1,2,4]triazin-4-amine]	76 to 100	50 to 75	C (C = 50-75% inhibition)	C (C = 50-75% inhibition)	76 to 100	C (C = 50-75% inhibition)	C (C = 50-75% inhibition)

— patent publication US12459951B2, “Compounds that interact with RAS superfamily proteins for treatment of cancers, inflammatory diseases, rasopathies, and fibrotic disease” (SHY Therapeutics, LLC, priority 2022, dated 2025)
